22 compounds from EP0677039B1, “CYCLOBUTANE DERIVATIVES AS INHIBITORS OF […] SYNTHETASE AND PROTEIN […]” (Abbott Laboratories, priority 1993, dated 1995) can be followed below.

By inhibition is commonly meant how much of the control response was suppressed. Read a low inhibition as a response near the control.

The target in the first assay is T1, Rat liver microsomal squalene synthetase (Rattus norvegicus, UniProt Q02769).
T1 construct: Rat liver microsome, the source of enzyme; from tissue; host or cells: rat liver microsomes
T1 sequence (Q02769 1-416): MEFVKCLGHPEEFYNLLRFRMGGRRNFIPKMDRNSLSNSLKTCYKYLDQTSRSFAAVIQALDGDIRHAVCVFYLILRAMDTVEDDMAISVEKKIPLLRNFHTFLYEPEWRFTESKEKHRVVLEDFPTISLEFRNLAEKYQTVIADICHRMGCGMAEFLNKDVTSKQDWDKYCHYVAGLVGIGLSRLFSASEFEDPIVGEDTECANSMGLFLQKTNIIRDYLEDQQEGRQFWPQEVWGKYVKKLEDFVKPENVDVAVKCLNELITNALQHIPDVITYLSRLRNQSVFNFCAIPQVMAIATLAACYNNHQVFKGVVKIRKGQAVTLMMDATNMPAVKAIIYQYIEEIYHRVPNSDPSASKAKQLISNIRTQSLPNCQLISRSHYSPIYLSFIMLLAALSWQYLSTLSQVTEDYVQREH
Kind of assay: In vitro inhibition of squalene synthetase. Format: biochemical. To be noted: 10 µM test compound; rat liver microsomes, labelled farnesyl pyrophosphate, 10 minutes at 37 °C; compared to controls with no test compound. The procedure: In vitro inhibition of squalene synthetase may be measured by the following procedure. Rat liver microsomal squalene synthetase activity was measured using farnesyl pyrophosphate as a substrate and quantitating squalene synthesis using labelled farnesyl pyrophosphate and counting the squalene formed. Rat liver microsome, the source of enzyme, was prepared according to the method of Gillies, P. J., et al., Exp. Molc. Pathol. 44: 329-339 (1986), a modification of the procedure of Erickson, S. K., and Cooper, A. D., Metabolism, 29: 991-996 (1980). […] Oxygen was excluded from the closed incubation tube by degassing with nitrogen. The reaction was terminated by the addition of ethanolic KOH and after degassing with N2, the microsomal membranes were solubilized by heating at 60 °C for 30 minutes. The squalene was extracted into hexane, and the squalene was separated from all other radioactive molecules by passage over an activated alumina column. […] The per cent inhibition at a dose of 10 µM (or 1 µM) compared to controls with no test compound was determined. […]
As to `CCCN(Cc1ccc(Oc2ccccc2)cc1)C(=O)[C@@H]1[C@H](C(=O)O)[C@@H](C(=O)OC)[C@H]1C(=O)N(CCC)Cc1ccc(Oc2ccccc2)cc1` (relative stereo) [Example 95, (1α,2β,3β,4α)-1,2-Di[N-propyl-N-(4-phenoxybenzyl)aminocarbonyl]-3-(methoxycarbonyl)cyclobutane-4-carboxylic Acid], the inhibition at 10 µM is 78%.
Compound `CCCN(Cc1ccc(Oc2ccccc2)cc1)C(=O)[C@@H]1[C@H](C(=O)O)[C@@H](C(=O)NO)[C@H]1C(=O)N(CCC)Cc1ccc(Oc2ccccc2)cc1` (relative stereo) [Example 98C, (1α,2β,3β,4α)-1,2-Di[N-propyl-N-(4-phenoxybenzyl)aminocarbonyl]-3-[(hydroxyamino)carbonyl]cyclobutane-4-carboxylic Acid] displayed an inhibition at 10 µM of 84%.
In turn, `CCCN(Cc1ccc(Oc2ccccc2)cc1)C(=O)[C@@H]1[C@H](C(N)=O)[C@@H](C(=O)O)[C@H]1C(=O)N(CCC)Cc1ccc(Oc2ccccc2)cc1` (relative stereo) [Example 99B, (1α,2β,3β,4α)-3-(Amino)carbonyl-1,2-di[N-propyl-N-(4-phenoxybenzyl)aminocarbonyl]cyclobutane-4-carboxylic Acid] registered an inhibition at 10 µM of 80%.
Still for that read-out and setting: the same measure for `CCCN(Cc1ccc(Oc2ccccc2)cc1)C(=O)[C@@H]1[C@H](C(=O)O)[C@@H](NS(=O)(=O)C(F)(F)F)[C@H]1C(=O)N(CCC)Cc1ccc(Oc2ccccc2)cc1` (relative stereo) [Example 100C, (1α,2β,3β,4α)-1,2-Di[N-propyl-N-(4-phenoxybenzyl)aminocarbonyl]-3-[(trifluoromethanesulfonyl)amino]cyclobutane-4-carboxylic Acid]: 84%.
Compound `CCCN(Cc1ccc(Oc2ccccc2)cc1)C(=O)[C@@H]1[C@H](C(=O)C=[N+]=[N-])[C@@H](C(=O)C=[N+]=[N-])[C@H]1C(=O)N(CCC)Cc1ccc(Oc2ccccc2)cc1` (relative stereo) [Example 102, (1α,2β,3β,4α)-3,4-Bis(diazoacetyl)-1,2-di[N-propyl-N-(4-phenoxybenzyl)aminocarbonyl]cyclobutane] yielded an inhibition at 10 µM of 58%.
On the same count and under the same terms, the value for `CCCN(Cc1ccc(Oc2ccccc2)cc1)C(=O)[C@@H]1[C@H](CC(=O)O)[C@@H](CC(=O)O)[C@H]1C(=O)N(CCC)Cc1ccc(Oc2ccccc2)cc1` (relative stereo) [Example 103B, (1α,2β,3β,4α)-1,2-Di[-N-propyl-N-(4-phenoxybenzyl)aminocarbonyl]cyclobutane-3-4-diacetic acid] was 90%; that for `CN(Cc1ccc(OCc2ccccc2)cc1)C(=O)[C@H]1[C@@H](C(=O)O)[C@H](C(=O)O)[C@@H]1C(=O)N(C)Cc1ccc(OCc2ccccc2)cc1` [Example 14, (1α,2β,3β,4α)-1,2-Di(N-methyl-N-(4-benzyloxybenzyl)aminocarbonyl]cyclobutane-3,4-dicarboxylic acid] was 31%; that for `O=C(O)[C@H]1[C@H](C(=O)O)[C@H](C(=O)N(Cc2ccccc2)Cc2ccc(Oc3ccccc3)cc2)[C@H]1C(=O)N(Cc1ccccc1)Cc1ccc(Oc2ccccc2)cc1` [Example 15, (1α,2β,3β,4α)-1,2-Di[N-benzyl-N-(4-phenoxybenzyl)aminocarbonyl]cyclobutane-3,4-dicarboxylic acid] was 99%.
In turn, `CN(Cc1cccc(Oc2ccccc2)c1)C(=O)[C@H]1[C@@H](C(=O)O)[C@H](C(=O)O)[C@@H]1C(=O)N(C)Cc1cccc(Oc2ccccc2)c1` [Example 18, (1α,2β,3β,4α)-1,2-Di[N-methyl-N-(3-phenoxybenzyl)aminocarbonyl]cyclobutane-3,4-dicarboxylic acid] displayed an inhibition at 10 µM of 55%.
Still for that read-out and setting: the value for `O=C(O)[C@H]1[C@H](C(=O)O)[C@H](C(=O)N(Cc2ccc(Oc3ccccc3)cc2)Cc2ccc(Oc3ccccc3)cc2)[C@H]1C(=O)N(Cc1ccc(Oc2ccccc2)cc1)Cc1ccc(Oc2ccccc2)cc1` [Example 19, (1α,2β,3β,4α)-1,2-Di[N,N-di(4-phenoxybenzyl)aminocarbonyl]cyclobutane-3,4-dicarboxylic acid] was 86%.
The same measure, in the same setting: the same measure for `CN(Cc1cccc(Oc2ccc(F)cc2)c1)C(=O)[C@H]1[C@@H](C(=O)O)[C@H](C(=O)O)[C@@H]1C(=O)N(C)Cc1cccc(Oc2ccc(F)cc2)c1` [Example 21, (1α,2β,3β,4α)-1,2-Di[N-methyl-N-(3-[4-fluorophenoxy]benzyl)aminocarbonyl]cyclobutane-3,4-dicarboxylic acid]: 52%.
For the compound `CN(C(=O)[C@H]1[C@@H](C(=O)O)[C@H](C(=O)O)[C@@H]1C(=O)N(C)c1ccc(-c2ccccc2)cc1)c1ccc(-c2ccccc2)cc1` [Example 22, (1α,2β,3β,4α)-1,2-Di[N-methyl-N-biphenylamino-carbonyl]cyclobutane-2,4-dicarboxylic acid], the inhibition at 10 µM is 20%.
Consider `CCCN(Cc1ccc(Cc2ccccc2)cc1)C(=O)[C@H]1[C@@H](C(=O)O)[C@H](C(=O)O)[C@@H]1C(=O)N(CCC)Cc1ccc(Cc2ccccc2)cc1` [Example 25, (1α,2β,3β,4α)-1,2-Di[N-propyl-N-(4-benzylbenzyl)aminocarbonyl]cyclobutane-3,4-dicarboxylic acid], for which the inhibition at 10 µM was determined as 84%.
The same measure, in the same setting: the value for `C#CCN(Cc1ccc(Oc2ccccc2)cc1)C(=O)[C@H]1[C@@H](C(=O)O)[C@H](C(=O)O)[C@@H]1C(=O)N(CC#C)Cc1ccc(Oc2ccccc2)cc1` [Example 27, (1α,2β,3β,4α)-1,2-Di[N-propargyl-N-(4-phenoxybenzyl)aminocarbonyl]cyclobutane-3,4-dicarboxylic acid] was 79%; that for `O=C(O)[C@H]1[C@H](C(=O)O)[C@H](C(=O)N(Cc2ccc(Oc3ccccc3)cc2)C2CC2)[C@H]1C(=O)N(Cc1ccc(Oc2ccccc2)cc1)C1CC1` [Example 30, (1α,2β,3β,4α)-1,2-Di[N-cyclopropyl-N-(4-phenoxybenzyl)aminocarbonyl]cyclobutane-3,4-dicarboxylic acid] was 67%.

Staying with this assay, now noted: values marked * in Table 1: 1 µM test compound; rat liver microsomes, labelled farnesyl pyrophosphate, 10 minutes at 37 °C.
`CCCN(Cc1ccc(Oc2ccccc2)cc1)C(=O)[C@@H]1[C@H](C(=O)O)[C@@H](CC(=O)O)[C@H]1C(=O)N(CCC)Cc1ccc(Oc2ccccc2)cc1` (relative stereo) [Example 101C] had an inhibition at 1 µM of 86%.
Turning to `CCCCC(NC(=O)[C@@H]1[C@@H](C(=O)O)[C@@H](C(=O)N(CCC)Cc2ccc(Oc3ccccc3)cc2)[C@@H]1C(=O)N(CCC)Cc1ccc(Oc2ccccc2)cc1)C(=O)O` (single isomer, unassigned) [Example 104A, (1α,2β,3β,4α)-1,2-Di[N-propyl-N-(4-phenoxybenzyl)aminocarbonyl]cyclobutane-3,4-dicarboxylic acid Mono-Norleucine Amide], testing at 1 µM gave an inhibition of 70%.
As to `CCCN(Cc1ccc(Oc2ccccc2)cc1)C(=O)C1C(C(=O)O)C(C(=O)NC(CO)C(=O)O)C1C(=O)N(CCC)Cc1ccc(Oc2ccccc2)cc1` (single isomer, unassigned) [Example 110A, (1α,2β,3β,4α)-1,2-Di[N-propyl-N-(4-phenoxybenzyl)aminocarbonyl]cyclobutane-3.4-dicarboxylic acid mono-Serine amide], the inhibition at 1 µM amounted to 73%.
`O=C(O)C1C(C(=O)O)C(C(=O)N(Cc2ccc(Oc3ccccc3)cc2)CC2CC2)C1C(=O)N(Cc1ccc(Oc2ccccc2)cc1)CC1CC1` (single isomer, unassigned; (-)) [Example 129B, (-)-(1α,2β,3β,4α)-1,2-Di[N-cyclopropylmethyl-N-(4-phenoxybenzyl)aminocarbonyl]cyclobutane-3,4-dicarboxylic acid]: 1 µM produced 92% inhibition.
Consider `C=CCN(Cc1ccc(Oc2ccccc2)cc1)C(=O)[C@H]1[C@@H](C(=O)O)[C@H](C(=O)O)[C@@H]1C(=O)N(CC=C)Cc1ccc(Oc2ccccc2)cc1` [Example 29, (1α,2β,3β,4α)-1,2-Di[N-allyl-N-(4-phenoxybenzyl)aminocarbonyl]cyclobutane-3,4-dicarboxylic acid], for which the inhibition at 1 µM is 72%.

Still in this assay, the particulars now being: values marked * in Table 1: 1 µM test compound; rat liver microsomes, labelled farnesyl pyrophosphate, 10 minutes at 37 °C; 1 µM.
As to `CCCCC(NC(=O)[C@@H]1[C@@H](C(=O)O)[C@@H](C(=O)N(CCC)Cc2ccc(Oc3ccccc3)cc2)[C@@H]1C(=O)N(CCC)Cc1ccc(Oc2ccccc2)cc1)C(=O)O` (single isomer, unassigned) [Example 104B, (1α,2β,3β,4α)-1,2-Di[N-propyl-N-(4-phenoxybenzyl)aminocarbonyl]cyclobutane-3,4-dicarboxylic acid Mono-Norleucine Amide], the “% Inhibition at 1 µM” value was 71* %.
With `CCCN(Cc1ccc(Oc2ccccc2)cc1)C(=O)C1C(C(=O)O)C(C(=O)NC(CO)C(=O)O)C1C(=O)N(CCC)Cc1ccc(Oc2ccccc2)cc1` (single isomer, unassigned) [Example 110B, (1α,2β,3β,4α)-1,2-Di[N-propyl-N-(4-phenoxybenzyl)aminocarbonyl]cyclobutane-3,4-dicarboxylic acid mono-Serine amide], the “% Inhibition at 1 µM” value was 69* %.
